Test systems include SW-620 colon; HCT-116 colon; SF-295 CNS; UACC-62 melanoma; SF-539 CNS; MOLT-4 leukemia; HOP-92 NSCLC; 786-0 renal; NCI-H23 lung; SK-MEL-28 melanoma.
Assay in all cases: DTP human tumour cell line panel, 48 h

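96-well plates; 48 h exposure; 5 concentrations. Endpoints by linear interpolation between flanking doses. Not reached: highest tested concentration assigned. GI50 is the concentration that inhibits growth by half. At the TGI there is no net growth.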

For `CC(C)C[C@H](NC(=O)CNC(=O)c1cc(Cl)ccc1Cl)B1OC(=O)CC(CC(=O)O)(C(=O)O)O1` (some centres not stated), the GI50 (usually the concentration that inhibits growth by half) in the experiment on SW-620 colon was 0.0364 µM; in the experiment with HCT-116 colon it was 0.0267 µM; with SF-295 CNS, 0.071 µM; in the experiment on UACC-62 melanoma, 0.0396 µM; in the experiment on SF-539 CNS, 0.023 µM; with MOLT-4 leukemia, 0.0366 µM. Besides, the GI50 in the experiment on HOP-92 NSCLC is 0.0219 µM; in the experiment on 786-0 renal it was 0.0655 µM; with NCI-H23 lung, 0.048 µM; in the experiment on SK-MEL-28 melanoma it was 0.0345 µM. Further, the TGI – broadly, the concentration at which net growth stops – is 0.0711 µM in the experiment on HCT-116 colon; 1.14 µM with SF-295 CNS; 0.221 µM with UACC-62 melanoma; 0.0528 µM in the experiment with SF-539 CNS; more than 100 µM with MOLT-4 leukemia; 0.173 µM with HOP-92 NSCLC. Moreover, the concentration for total growth inhibition (TGI) is 6.44 µM with NCI-H23 lung and 0.191 µM with SK-MEL-28 melanoma.
`COc1ccc(-c2nc(Nc3cc(C)[nH]n3)c3ccccc3n2)cc1`: the GI50 was 2.14 µM in the experiment with SW-620 colon; 0.744 µM in the experiment with HCT-116 colon; 2.61 µM in the experiment on SF-295 CNS; 2.37 µM in the experiment on UACC-62 melanoma; 1.47 µM in the experiment on SF-539 CNS; 3.67 µM with MOLT-4 leukemia. The GI50 in the experiment with HOP-92 NSCLC is 0.621 µM; in the experiment on 786-0 renal, 1.27 µM; in the experiment on NCI-H23 lung it was 5.47 µM; in the experiment on SK-MEL-28 melanoma, 5.12 µM. Besides, the TGI with SW-620 colon was more than 100 µM; with HCT-116 colon, 17.5 µM; with SF-295 CNS, more than 71.4 µM; in the experiment on UACC-62 melanoma, more than 100 µM; in the experiment on SF-539 CNS, 4.15 µM; with MOLT-4 leukemia it was 58.5 µM. In addition, the TGI was 3.77 µM in the experiment on HOP-92 NSCLC, more than 31.3 µM with 786-0 renal, more than 100 µM in the experiment with NCI-H23 lung and more than 100 µM in the experiment on SK-MEL-28 melanoma.
In the case of `Cc1cc(S(=O)(=O)/N=C(/N)Nc2ccccc2O)c(SCc2ccccc2)cc1Cl`, the GI50 is 22.1 µM in the experiment on SW-620 colon; 15.1 µM in the experiment on HCT-116 colon; 19 µM in the experiment on SF-295 CNS; 9.6 µM in the experiment with UACC-62 melanoma; 10.4 µM with SF-539 CNS; 3.01 µM with MOLT-4 leukemia. In addition, the GI50 with HOP-92 NSCLC is 15.3 µM; with 786-0 renal, 18.6 µM; with NCI-H23 lung, 17.1 µM; with SK-MEL-28 melanoma, 18.6 µM. Besides, the TGI in the experiment with SW-620 colon was 56.4 µM; in the experiment on HCT-116 colon it was 31.4 µM; in the experiment with SF-295 CNS it was 39.5 µM; with UACC-62 melanoma, 22.7 µM; with SF-539 CNS it was 24.7 µM; in the experiment with MOLT-4 leukemia it was 42.3 µM. For the same compound, the TGI with HOP-92 NSCLC was 35.6 µM; in the experiment with 786-0 renal, 35 µM; in the experiment with NCI-H23 lung, 34.4 µM; in the experiment on SK-MEL-28 melanoma, 43.9 µM.
For the compound `O=C(/C=C/c1cc2ccccc2[nH]c1=O)/C=C/c1cc2ccccc2[nH]c1=O`, the GI50 in the experiment on SW-620 colon is 6.34 µM; in the experiment with HCT-116 colon it was 1.28 µM; in the experiment on SF-295 CNS it was more than 25.3 µM; in the experiment with UACC-62 melanoma, 16.9 µM; in the experiment with SF-539 CNS, 9.13 µM; in the experiment on MOLT-4 leukemia it was 24 µM. Besides, the values for the GI50 in the experiment on HOP-92 NSCLC, in the experiment with NCI-H23 lung and in the experiment with SK-MEL-28 melanoma were more than 100 µM, 9.25 µM and 14.8 µM, respectively. Further, the TGI in the experiment on SW-620 colon was 14.8 µM; in the experiment with HCT-116 colon it was 2.09 µM; in the experiment on SF-295 CNS, more than 86.2 µM; in the experiment on UACC-62 melanoma it was 97.8 µM; in the experiment on SF-539 CNS, more than 75.9 µM; in the experiment with MOLT-4 leukemia, more than 100 µM. Moreover, the TGI was more than 100 µM in the experiment with HOP-92 NSCLC, more than 26.1 µM in the experiment with 786-0 renal, 48.9 µM with NCI-H23 lung and more than 66.5 µM in the experiment on SK-MEL-28 melanoma.
As for `CC/C=C\C/C=C\C/C=C\CCCCCCCC(=O)OCC(O)CO` (configuration not stated), the TGI is more than 96.4 µM with SW-620 colon; more than 68.3 µM in the experiment on HCT-116 colon; more than 100 µM in the experiment with SF-295 CNS; more than 100 µM with UACC-62 melanoma; more than 100 µM in the experiment on SF-539 CNS; more than 63.5 µM in the experiment with MOLT-4 leukemia. The TGI in the experiment on HOP-92 NSCLC, in the experiment on 786-0 renal, in the experiment on NCI-H23 lung and in the experiment with SK-MEL-28 melanoma was more than 100 µM throughout.
Turning to `Fc1ccc(/C=N/n2c(-c3ccc(F)c(Cl)c3)nn(CNc3ccccc3C(F)(F)F)c2=S)cc1`, the GI50 in the experiment with SW-620 colon is 86.2 µM; in the experiment on HCT-116 colon, 55.4 µM; in the experiment on SF-295 CNS it was 42.6 µM; in the experiment on UACC-62 melanoma, 39.2 µM; in the experiment on SF-539 CNS, 93.2 µM; in the experiment with MOLT-4 leukemia it was 28.4 µM. The GI50 in the experiment on HOP-92 NSCLC was 17.6 µM; in the experiment with 786-0 renal, 75.4 µM; in the experiment with NCI-H23 lung, 61.7 µM; in the experiment with SK-MEL-28 melanoma it was 97.2 µM. Also, the TGI in the experiment on SW-620 colon, in the experiment with HCT-116 colon, in the experiment with SF-295 CNS, in the experiment with UACC-62 melanoma, in the experiment on SF-539 CNS and in the experiment with MOLT-4 leukemia was more than 100 µM in each case. Moreover, the TGI is 63.8 µM with HOP-92 NSCLC, more than 100 µM in the experiment on 786-0 renal, more than 100 µM with NCI-H23 lung and more than 100 µM with SK-MEL-28 melanoma.
For the compound `Cc1ccc2c(C3Cc4ccccc4N3C(=O)/C=C\C(=O)O)c(C)[nH]c2c1` (configuration not stated), the TGI was more than 100 µM in the experiment on SW-620 colon; more than 100 µM in the experiment with HCT-116 colon; more than 100 µM in the experiment on SF-295 CNS; 97.6 µM in the experiment with UACC-62 melanoma; more than 100 µM in the experiment with SF-539 CNS; 94.6 µM with MOLT-4 leukemia. Also, the TGI in the experiment with HOP-92 NSCLC is 84.1 µM; with 786-0 renal, more than 100 µM; in the experiment with NCI-H23 lung, more than 100 µM; in the experiment with SK-MEL-28 melanoma it was more than 100 µM.
As for `O=[N+]([O-])c1ccc(C=Cc2ccccc2)cc1.[C-]#[O+].[C-]#[O+].[C-]#[O+].[Cr]`, the GI50 was 79.5 µM in the experiment on SW-620 colon; 14.8 µM in the experiment on HCT-116 colon; 42.1 µM in the experiment on SF-295 CNS; 3.01 µM in the experiment with UACC-62 melanoma; more than 100 µM with SF-539 CNS; 5.13 µM in the experiment on MOLT-4 leukemia. Besides, the GI50 in the experiment on HOP-92 NSCLC was 4.94 µM; in the experiment on 786-0 renal, 3.41 µM; in the experiment on NCI-H23 lung, 20.9 µM; with SK-MEL-28 melanoma, more than 100 µM. The TGI is more than 100 µM with SW-620 colon; more than 100 µM in the experiment with HCT-116 colon; more than 100 µM in the experiment with SF-295 CNS; 46.9 µM in the experiment on UACC-62 melanoma; more than 100 µM with SF-539 CNS; more than 100 µM with MOLT-4 leukemia. Also, the concentration for total growth inhibition (TGI) with HOP-92 NSCLC, with 786-0 renal, with NCI-H23 lung and with SK-MEL-28 melanoma was more than 100 µM each time.

Values taken from PubChem BioAssay (NCI).
